Assay results reported in US10899753B2, “Inhibiting agents for Bruton's tyrosine kinase” (BIOGEN MA INC., priority 2018, dated 2021).

Key:
[1] = molecular target: T1, BTK (Homo sapiens (Human), UniProt Q06187); test: In Vitro PD Assay in Human Whole Blood (pBTK assay); type: cell-based; details: human heparinized whole blood, 37° C. for 30 min, total BTK capture and phosphotyrosine detection (ECL)
Experimental: In Vitro PD Assay in Human Whole Blood
Human heparinized venous blood was purchased from Bioreclamation, Inc. or SeraCare Life Sciences and shipped overnight. Whole blood was aliquoted into 96-well plate and “spiked” with serial dilutions of test compound in DMSO or with DMSO without drug. The final concentration of DMSO in all wells was 0.1%. The plate was incubated at 37° C. for 30 min. Lysis buffer containing protease and phosphatase inhibitors was added to the drug-containing samples and one of the DMSO-only samples (+PPi, high control), while lysis buffer containing protease inhibitors was added to the other DMSO-only samples (−PPi, low control). All of the lysed whole blood samples were subjected to the total BTK capture and phosphotyrosine detection method described in US20160311802, incorporated herein by reference.

[2] = molecular target: T1, BTK; test: In Vitro BTK Kinase Assay: BTK-POLYGAT-LS ASSAY; type: biochemical; details: fluorescein-labeled polyGAT peptide 100 nM, BTK enzyme 0.25 nM, 30 minutes, TRF
Experimental: In Vitro BTK Kinase Assay: BTK-POLYGAT-LS ASSAY
The purpose of the BTK in vitro assay is to determine compound potency against BTK through the measurement of IC50. […] For a typical assay, a […] aliquot of a ATP/peptide master mix (final concentration; ATP […], polyGAT 100 nM) in kinase buffer (10 mM Tris-HCl pH 7.5, 10 mM MgCl2, 200 μM Na3PO4, 5 mM DTT, 0.01% Triton X-100, and 0.2 mg/ml casein) is added to each well. […] The assay is incubated for 30 minutes before being stopped with 28 μL of a 50 mM EDTA solution. […] The plate is covered and incubated for 45 minutes at room temperature. Time resolved fluorescence (TRF) on Molecular Devices M5 (332 nm excitation; 488 nm emission; 518 nm fluorescein emission) is measured.

T1 sequence (Q06187 whole entry): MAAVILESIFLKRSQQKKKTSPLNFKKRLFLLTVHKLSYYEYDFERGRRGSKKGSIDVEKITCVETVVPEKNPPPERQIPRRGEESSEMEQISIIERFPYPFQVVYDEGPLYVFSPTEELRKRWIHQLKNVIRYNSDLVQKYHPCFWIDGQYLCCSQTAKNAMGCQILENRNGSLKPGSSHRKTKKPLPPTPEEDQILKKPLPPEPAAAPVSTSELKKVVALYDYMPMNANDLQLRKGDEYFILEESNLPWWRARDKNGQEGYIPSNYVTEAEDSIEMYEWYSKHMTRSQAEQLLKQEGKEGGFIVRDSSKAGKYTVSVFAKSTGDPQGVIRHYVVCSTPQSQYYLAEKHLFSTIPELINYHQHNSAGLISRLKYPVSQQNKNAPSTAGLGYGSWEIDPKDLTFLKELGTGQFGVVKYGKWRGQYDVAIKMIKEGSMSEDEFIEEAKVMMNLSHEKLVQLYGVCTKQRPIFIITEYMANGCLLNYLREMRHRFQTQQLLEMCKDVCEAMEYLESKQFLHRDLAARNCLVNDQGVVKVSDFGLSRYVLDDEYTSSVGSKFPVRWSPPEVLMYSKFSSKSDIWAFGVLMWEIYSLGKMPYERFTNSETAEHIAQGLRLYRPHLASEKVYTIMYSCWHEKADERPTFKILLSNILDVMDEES

Cc1cc(-c2ncnc(Nc3cnn(C)c3)n2)ccc1CNC(=O)c1noc(C2(CF)CC2)n1 [Compound 49, 5-(1-(fluoromethyl)cyclopropyl)-N-(2-methyl-4-(4-((1-methyl-1H-pyrazol-4-yl)amino)-1,3,5-triazin-2-yl)benzyl)-1,2,4-oxadiazole-3-carboxamide]
IC50 [1]: 100 to 500 nM | IC50 [2]: < 1 nM

Cn1cc(Nc2ncnc(-c3ccc(CNC(=O)c4noc(C5(C)CC5)n4)c(Cl)c3F)n2)cn1 [Compound 30, N-(2-chloro-3-fluoro-4-(4-((1-methyl-1H-pyrazol-4-yl)amino)-1,3,5-triazin-2-yl)benzyl)-5-(1-methylcyclopropyl)-1,2,4-oxadiazole-3-carboxamide]
IC50 [1]: < 100 nM | IC50 [2]: < 1 nM

Cn1ccc(Nc2ncnc(-c3ccc4c(c3)CN(C3COC3)CC[C@H]4NC(=O)c3coc(C(C)(C)C)n3)n2)n1 [Compound 94, (R)-2-(tert-butyl)-N-(8-(4-((1-methyl-1H-pyrazol-3-yl)amino)-1,3,5-triazin-2-yl)-2-(oxetan-3-yl)-2,3,4,5-tetrahydro-1H-benzo[c]azepin-5-yl)oxazole-4-carboxamide]
IC50 [1]: 100 to 500 nM | IC50 [2]: 1 to 10 nM

Cc1cc(-c2ncnc(Nc3cnn(C)c3)n2)c(F)cc1CNC(=O)c1cc(C(C)(C)C)on1 [Compound 64, 5-(tert-butyl)-N-(5-fluoro-2-methyl-4-(4-((1-methyl-1H-pyrazol-4-yl)amino)-1,3,5-triazin-2-yl)benzyl)isoxazole-3-carboxamide]
IC50 [1]: 500 to 10000 nM | IC50 [2]: < 1 nM

C[C@@H](NC(=O)c1noc(C(C)(C)C)n1)c1ccc(-c2ncnc(Nc3cnn(C)c3)n2)c(F)c1Cl [Compound 69, (R)-5-(tert-butyl)-N-(1-(2-chloro-3-fluoro-4-(4-((1-methyl-1H-pyrazol-4-yl)amino)-1,3,5-triazin-2-yl)phenyl)ethyl)-1,2,4-oxadiazole-3-carboxamide]
IC50 [1]: < 100 nM | IC50 [2]: < 1 nM

Cc1cc(-c2ncnc(Nc3cnn(C)c3)n2)c(F)cc1CNC(=O)c1cn(C(C)(C)C)nn1 [Compound 62, 1-(tert-butyl)-N-(5-fluoro-2-methyl-4-(4-((1-methyl-1H-pyrazol-4-yl)amino)-1,3,5-triazin-2-yl)benzyl)-1H-1,2,3-triazole-4-carboxamide]
IC50 [1]: 500 to 10000 nM | IC50 [2]: 1 to 10 nM

Cc1cc(-c2ncnc(Nc3cnn(C)c3)n2)ccc1CNC(=O)c1cn(C(C)(C)C)nn1 [Compound 109, 1-(tert-butyl)-N-(2-methyl-4-(4-((1-methyl-1H-pyrazol-4-yl)amino)-1,3,5-triazin-2-yl)benzyl)-1H-1,2,3-triazole-4-carboxamide]
IC50 [1]: 100 to 500 nM | IC50 [2]: 1 to 10 nM

Cn1cc(Nc2ncnc(-c3ccc(CNC(=O)c4noc(C(C)(C)C)n4)c(Cl)c3)n2)cn1 [Compound 15, 5-(tert-butyl)-N-(2-chloro-4-(4-((1-methyl-1H-pyrazol-4-yl)amino)-1,3,5-triazin-2-yl)benzyl)-1,2,4-oxadiazole-3-carboxamide]
IC50 [1]: 100 to 500 nM | IC50 [2]: < 1 nM

Cc1c(CNC(=O)c2ccn(C(C)(C)C)n2)ccc(-c2ncnc(Nc3cnn(C)c3)n2)c1F [Compound 106, 1-(tert-butyl)-N-(3-fluoro-2-methyl-4-(4-((1-methyl-1H-pyrazol-4-yl)amino)-1,3,5-triazin-2-yl)benzyl)-1H-pyrazole-3-carboxamide]
IC50 [1]: 500 to 10000 nM | IC50 [2]: < 1 nM

Cc1c([C@@H](C)NC(=O)c2cc(C(C)(C)C)on2)ccc(-c2ncnc(Nc3cnn(C)c3)n2)c1F [Compound 76, (R)-5-(tert-butyl)-N-(1-(3-fluoro-2-methyl-4-(4-((1-methyl-1H-pyrazol-4-yl)amino)-1,3,5-triazin-2-yl)phenyl)ethyl)isoxazole-3-carboxamide]
IC50 [1]: 100 to 500 nM | IC50 [2]: < 1 nM

Cn1cc(Nc2ncnc(-c3ccc4c(c3)CN(CC(F)(F)F)CC[C@H]4NC(=O)c3coc(C(C)(C)C)n3)n2)cn1 [Compound 92, 2-tert-butyl-N-[(5R)-8-[4-[(1-methylpyrazol-4-yl)amino]-1,3,5-triazin-2-yl]-2-(2,2,2-trifluoroethyl)-1,3,4,5-tetrahydro-2-benzazepin-5-yl]oxazole-4-carboxamide]
IC50 [1]: < 100 nM | IC50 [2]: < 1 nM

Cn1ccc(Nc2ncnc(-c3ccc4c(c3F)CCCC[C@H]4NC(=O)c3noc(C(C)(C)C)n3)n2)n1 [Compound 111, (R)-5-(tert-butyl)-N-(1-fluoro-2-(4-((1-methyl-1H-pyrazol-3-yl)amino)-1,3,5-triazin-2-yl)-6,7,8,9-tetrahydro-5H-benzo[7]annulen-5-yl)-1,2,4-oxadiazole-3-carboxamide]
IC50 [1]: 100 to 500 nM | IC50 [2]: < 1 nM

Cc1c(CNC(=O)c2noc(C3(C)CC3)n2)ccc(-c2ncnc(Nc3ccn(C)n3)n2)c1F [Compound 113, N-(3-fluoro-2-methyl-4-(4-((1-methyl-1H-pyrazol-3-yl)amino)-1,3,5-triazin-2-yl)benzyl)-5-(1-methylcyclopropyl)-1,2,4-oxadiazole-3-carboxamide]
IC50 [1]: 100 to 500 nM | IC50 [2]: < 1 nM

Cc1cc(-c2ncnc(Nc3ccn(C)n3)n2)ccc1CNC(=O)c1nn(C(C)(C)C)cc1F [Compound 4, 1-(tert-butyl)-4-fluoro-N-(2-methyl-4-(4-((1-methyl-1H-pyrazol-3-yl)amino)-1,3,5-triazin-2-yl)benzyl)-1H-pyrazole-3-carboxamide]
IC50 [1]: > 10000 nM | IC50 [2]: 1 to 10 nM

Cc1c(CNC(=O)c2noc(C(C)(C)CF)n2)ccc(-c2ncnc(Nc3ccn(C)n3)n2)c1F [Compound 45, N-(3-fluoro-2-methyl-4-(4-((1-methyl-1H-pyrazol-3-yl)amino)-1,3,5-triazin-2-yl)benzyl)-5-(1-fluoro-2-methylpropan-2-yl)-1,2,4-oxadiazole-3-carboxamide]
IC50 [1]: 100 to 500 nM | IC50 [2]: < 1 nM

Cn1ccc(Nc2ncnc(-c3ccc(CNC(=O)c4noc(C5(C)CC5)n4)c(Cl)c3F)n2)n1 [Compound 104, N-(2-chloro-3-fluoro-4-(4-((1-methyl-1H-pyrazol-3-yl)amino)-1,3,5-triazin-2-yl)benzyl)-5-(1-methylcyclopropyl)-1,2,4-oxadiazole-3-carboxamide]
IC50 [1]: 500 to 10000 nM | IC50 [2]: < 1 nM

Cc1cc(-c2ncnc(Nc3cnn(C)c3)n2)c(F)cc1CNC(=O)c1nc(C(C)(C)C)no1 [Compound 57, 3-(tert-butyl)-N-(5-fluoro-2-methyl-4-(4-((1-methyl-1H-pyrazol-4-yl)amino)-1,3,5-triazin-2-yl)benzyl)-1,2,4-oxadiazole-5-carboxamide]
IC50 [1]: 100 to 500 nM | IC50 [2]: < 1 nM

Cn1ccc(Nc2ncnc(-c3ccc4c(c3F)CCCC[C@H]4NC(=O)c3coc(C(C)(C)C)n3)n2)n1 [Compound 112, (R)-2-(tert-butyl)-N-(1-fluoro-2-(4-((1-methyl-1H-pyrazol-3-yl)amino)-1,3,5-triazin-2-yl)-6,7,8,9-tetrahydro-5H-benzo[7]annulen-5-yl)oxazole-4-carboxamide]
IC50 [1]: 500 to 10000 nM | IC50 [2]: < 1 nM

Cn1ccc(Nc2ncnc(-c3ccc(CNC(=O)c4noc(C(C)(C)CF)n4)c(C4CC4)c3)n2)n1 [Compound 54, N-(2-cyclopropyl-4-(4-((1-methyl-1H-pyrazol-3-yl)amino)-1,3,5-triazin-2-yl)benzyl)-5-(1-fluoro-2-methylpropan-2-yl)-1,2,4-oxadiazole-3-carboxamide]
IC50 [1]: 100 to 500 nM | IC50 [2]: < 1 nM

Cc1cc(-c2ncnc(Nc3cnn(C)c3)n2)c(F)cc1CNC(=O)c1nc(C2(CF)CC2)no1 [Compound 60, N-(5-fluoro-2-methyl-4-(4-((1-methyl-1H-pyrazol-4-yl)amino)-1,3,5-triazin-2-yl)benzyl)-3-(1-(fluoromethyl)cyclopropyl)-1,2,4-oxadiazole-5-carboxamide]
IC50 [1]: 100 to 500 nM | IC50 [2]: < 1 nM

Cc1cc(-c2ncnc(Nc3cnn(C)c3)n2)ccc1CNC(=O)c1cnc(C(C)(C)C)o1 [Compound 99, 2-(tert-butyl)-N-(2-methyl-4-(4-((1-methyl-1H-pyrazol-4-yl)amino)-1,3,5-triazin-2-yl)benzyl)oxazole-5-carboxamide]
IC50 [1]: 500 to 10000 nM | IC50 [2]: < 1 nM

Cn1ccc(Nc2ncnc(-c3cc4c(cc3F)[C@H](NC(=O)c3nc(C(C)(C)C)no3)CCCC4)n2)n1 [Compound 85, (R)-3-(tert-butyl)-N-(3-fluoro-2-(4-((1-methyl-1H-pyrazol-3-yl)amino)-1,3,5-triazin-2-yl)-6,7,8,9-tetrahydro-5H-benzo[7]annulen-5-yl)-1,2,4-oxadiazole-5-carboxamide]
IC50 [1]: < 100 nM | IC50 [2]: < 1 nM

Cc1cc(-c2ncnc(Nc3ccn(C)n3)n2)ccc1CNC(=O)c1cnc(C(C)(C)C)o1 [Compound 3, 2-(tert-butyl)-N-(2-methyl-4-(4-((1-methyl-1H-pyrazol-3-yl)amino)-1,3,5-triazin-2-yl)benzyl)oxazole-5-carboxamide]
IC50 [1]: 500 to 10000 nM | IC50 [2]: 1 to 10 nM
